Results on four molecules are retold here after PMC10800023 (Human Molecular Genetics, 2023).

A value given as a limit tells only on which side of the number the result lay.

One series deals with MDCK cells. Description: MDCK control cell permeability (not transfected with human P-gp). The following applies: dog, MDCK-MDR1, 60 min, pH 7.4. Here is the method:
(§1) To measure transport by P-gp, Madin-Darby canine kidney (MDCK) cells that had been transfected with the human P-gp (MDR1) gene were plated in a Transwell plate and cultured until polarized. MDCK cells that are not transfected with human P-gp were used as a control. Compounds were added to either the apical or the basolateral side of the cells, and transport across the membrane was measured.
(§2) Testing for permeability and MDR1 substrate assessment was done in MDCK cells transfected to overexpress human MDR1 gene that encodes efflux transporter protein (P-gp). […] Briefly, cells were maintained in Dulbecco’s modified Eagle medium (DMEM) with 10% fetal bovine serum and 1% penicillin/streptomycin in a humidified incubator at 37°C with 5% CO2. The study was performed by Absorption Systems (now Pharmaron; Exton, PA). The MDR1-MDCK and MDCK control cell lines were seeded into 12-well plates for 7 days. Integrity of monolayer tight junctions was monitored preincubation by transepithelial electrical resistance (TEER) measurement. […] The samples were withdrawn at t = 0 and 60 min from the receiver and donor compartments. Compound levels were measured by LC/MS–MS. Additionally, post-assay, cell monolayer integrity was checked with Lucifer Yellow permeability measurement. Transport assay low- and high-permeability control compounds were run in parallel for assay validation. Papp values were calculated considering compound concentrations across the monolayer and cell surface area. Efflux ratios were calculated based on Papp B > A over Papp A > B. The difference between the MDR1-MDCK and the MDCK cell efflux ratios was also calculated. […] Compounds were classified by Absorption Systems/Pharmaron as follows: […]

Another series has as its system human P-gp (MDR1). The experiment in a line: MDR1-MDCK permeability / P-gp efflux assay. The method, then:
as §1, §2

Series [1] in a line: MDCK control cell permeability (not transfected with human P-gp). The following applies: dog, pH 7.4. The method, then: as §1, §2
A further series relates to P-gp (MDR1). Description: MDR1-MDCK permeability / P-gp efflux assay. The following applies: MDCK-MDR1, pH 7.4. Here is the method: as §1, §2
Setting [2] is: dog, MDCK-MDR1, 60 min, 1 μM, pH 7.4.
The mark [3] stands for this setting: dog, MDCK-MDR1, 60 min, 10 μM, pH 7.4.

Regarding `CC1=N[C@]2(C(=O)CO)[C@@H](C[C@H]3[C@@H]4CCC5=CC(=O)C=C[C@]5(C)[C@H]4[C@@H](O)C[C@@]32C)O1` [21-Des-deflazacort], in the series with MDCK cells (1 μM), the “Apical to Basolateral MDCK” value was 12.4 10 ^ −6 cm/s and the “Basolateral to Apical MDCK” value is listed as 15.5 10 ^ −6 cm/s. In the series with MDCK cells (10 μM), the “Apical to Basolateral MDCK” value is given as 6.28 10 ^ −6 cm/s and the “Basolateral to Apical MDCK” value is on record as 8.8 10 ^ −6 cm/s. Also, the Papp values in the series with human P-gp (MDR1) (MDCK-MDR1) was less than 3 ×10⁻⁶ cm/s. In addition, in the series on human P-gp (MDR1) (setting [2]), the “Apical to Basolateral MDR1-MDCK” value is 1.08 10 ^ −6 cm/s and the “Basolateral to Apical MDR1-MDCK” value is reported as 72.8 10 ^ −6 cm/s. Also, in the series on human P-gp (MDR1) (setting [3]), the “Apical to Basolateral MDR1-MDCK” value is recorded as 1.11 10 ^ −6 cm/s and the “Basolateral to Apical MDR1-MDCK” value is reported as 73.6 10 ^ −6 cm/s.
For `C[C@]12C=CC(=O)C=C1CC[C@@H]1[C@@H]2C(=O)C[C@@]2(C)[C@H]1CC[C@]2(O)C(=O)CO` [Prednisone], in series [1], the apparent permeability from apical to basolateral (Papp A→B) (usually how fast a substance crosses the layer from the apical side) at 60 min, 1 μM came to 2.83 ×10⁻⁶ cm/s; the Papp A→B at 60 min, 10 μM turned out to be 2.09 ×10⁻⁶ cm/s; the Papp B→A (in general, how fast a substance crosses the layer from the basolateral side) at 60 min, 1 μM stood at 3.42 ×10⁻⁶ cm/s; the Papp B→A at 60 min, 10 μM stood at 2.86 ×10⁻⁶ cm/s. Also, the Papp (as a rule, a coefficient for how fast a substance crosses the barrier) at 60 min with P-gp (MDR1) was less than 3 ×10⁻⁶ cm/s. Also, the “Apical to Basolateral MDR1-MDCK” value in the series with human P-gp (MDR1) (10 μM) is 0.499 10 ^ −6 cm/s. In addition, the brain penetration classification result with human P-gp (MDR1) (1 and 10 μM, from Papp (A-to-B) and efflux ratio) is reported as “low”. Further, in the series on human P-gp (MDR1) (dog, MDCK-MDR1, pH 7.4), the Papp A→B at 60 min, 1 μM was 0.263 ×10⁻⁶ cm/s; the Papp B→A at 60 min, 1 μM was 43.8 ×10⁻⁶ cm/s; the Papp B→A at 60 min, 10 μM amounted to 51.8 ×10⁻⁶ cm/s.
Consider `C[C@H]1O[C@@H](O[C@H]2[C@@H](O)C[C@H](O[C@H]3[C@@H](O)C[C@H](O[C@H]4CC[C@@]5(C)[C@H](CC[C@@H]6[C@@H]5C[C@@H](O)[C@]5(C)[C@@H](C7=CC(=O)OC7)CC[C@]65O)C4)O[C@@H]3C)O[C@@H]2C)C[C@H](O)[C@@H]1O` [digoxin], for which, in the series on P-gp (MDR1), the Papp A→B at 60 min is 0.0521 to 0.0558 ×10⁻⁶ cm/s, the Papp B→A at 60 min was in the range of 19.6 to 20.7 ×10⁻⁶ cm/s and the efflux ratio (usually a quotient of directional permeabilities that is used to spot active efflux) at 60 min lay in the range of 352 to 398.
In the series on P-gp (MDR1), `CC(C)NCC(O)COc1cccc2ccccc12` (centres unmarked) [propranolol] registered a Papp at 60 min of 19.7 to 21.4 ×10⁻⁶ cm/s.
